Test results published in US20120178915A1, “PYRIMIDINE DERIVATIVES AND ANALOGS, PREPARATION METHOD AND USE THEREOF” (priority 2009, published 2012).
In brackets after ≈: the same amount, converted by molar mass. Read-outs that look alike come from different tables or passages of the source.

Tests used:
Format in all cases: cell-based
[1] = test system: Streptococcus agalactiae B; test: microbe, parasite or virus in culture; details: 37° C., 24 h, read-out: Minimum Inhibitory Concentration, MIC
MIC broth microdilution = details: Microorganism 33, Dermatophytosis; 37° C., 24 h; read-out: Minimum Inhibitory Concentration, MIC
Clostridium perfringens = test: microbe, parasite or virus in culture; details: 24 h, read-out: Minimum Inhibitory Concentration, MIC
[2] = test system: Enterococcus faecalis F2518 (VRE); test: microbe, parasite or virus in culture; details: 24 h, read-out: Minimum Inhibitory Concentration, MIC
[3] = test system: Streptococcus pneumoniae 62; test: microbe, parasite or virus in culture; details: 37° C., 24 h, read-out: Minimum Inhibitory Concentration, MIC
[4] = test system: Enterococcus faecalis 19433; test: microbe, parasite or virus in culture; details: 37° C., 24 h, read-out: Minimum Inhibitory Concentration, MIC
green Streptococcus 1009 = test: microbe, parasite or virus in culture; details: 37° C., 24 h, read-out: Minimum Inhibitory Concentration, MIC
[5] = test system: Enterococcus faecalis 583 (VRE); test: microbe, parasite or virus in culture; details: 24 h, read-out: Minimum Inhibitory Concentration, MIC
Bacillus cereus 2 = test: microbe, parasite or virus in culture; details: 37° C., 24 h, read-out: Minimum Inhibitory Concentration, MIC
[6] = test system: Corynebacterium diphtheriae; test: microbe, parasite or virus in culture; details: 37° C., 24 h, read-out: Minimum Inhibitory Concentration, MIC
[7] = test system: Enterococcus faecalis 29212; test: microbe, parasite or virus in culture; details: 37° C., 24 h, read-out: Minimum Inhibitory Concentration, MIC
[8] = test system: Staphylococcus aureus 703 (MRSA); test: microbe, parasite or virus in culture; details: 24 h, read-out: Minimum Inhibitory Concentration, MIC
Bacillus subtilis 82 = test: microbe, parasite or virus in culture; details: 37° C., 24 h, read-out: Minimum Inhibitory Concentration, MIC
Gram-positive Bacteria = test system: Gram-positive Bacteria
[9] = test system: Staphylococcus aureus 704 (MRSA); test: microbe, parasite or virus in culture; details: 24 h, read-out: Minimum Inhibitory Concentration, MIC
[10] = test system: Streptococcus pneumoniae 6301; test: microbe, parasite or virus in culture; details: 37° C., 24 h, read-out: Minimum Inhibitory Concentration, MIC
Bacillus anthracis 1 = test: microbe, parasite or virus in culture; details: Bacillus anthracis, 1, 24 h, read-out: Minimum Inhibitory Concentration, MIC
[11] = test system: Enterococcus fecal F631 (VRE); test: organism not typed; details: 24 h, read-out: Minimum Inhibitory Concentration, MIC
[12] = test system: Enterococcus faecalis 51299; test: microbe, parasite or virus in culture; details: Enterococcus faecalis, 51299, 24 h, read-out: Minimum Inhibitory Concentration, MIC
Streptococcus 10342 = test: MIC broth microdilution; details: 37° C., 24 h, read-out: Minimum Inhibitory Concentration, MIC
Oral candidiasis = test: MIC broth microdilution; details: Microorganism 32, Oral candidiasis; 37° C., 24 h; read-out: Minimum Inhibitory Concentration, MIC
[13] = test system: Streptococcus pneumoniae 6303 (PRSP); test: microbe, parasite or virus in culture; details: 24 h, read-out: Minimum Inhibitory Concentration, MIC
Clostridium tetani = test: microbe, parasite or virus in culture; details: 24 h
[14] = test system: Staphylococcus aureus 29231; test: microbe, parasite or virus in culture; details: 37° C., 24 h, read-out: Minimum Inhibitory Concentration, MIC
Pyogenic Streptococcus = test: microbe, parasite or virus in culture; details: 37° C., 24 h, read-out: Minimum Inhibitory Concentration, MIC
[15] = test system: Staphylococcus aureus 43300 (MRSA); test: microbe, parasite or virus in culture; details: 24 h, read-out: Minimum Inhibitory Concentration, MIC
[16] = test system: Streptococcus pneumoniae 10351; test: microbe, parasite or virus in culture; details: 37° C., 24 h, read-out: Minimum Inhibitory Concentration, MIC
[17] = test system: Staphylococcus aureus 705 (MRSA); test: microbe, parasite or virus in culture; details: 24 h, read-out: Minimum Inhibitory Concentration, MIC
Bacillus subtilis 168 = test: microbe, parasite or virus in culture; details: 37° C., 24 h, read-out: Minimum Inhibitory Concentration, MIC
[18] = test system: Streptococcus bovis 10035; test: microbe, parasite or virus in culture; details: Streptococcus equinus, 37° C., 24 h, read-out: Minimum Inhibitory Concentration, MIC
Bacillus cereus 246 = test: microbe, parasite or virus in culture; details: 37° C., 24 h, read-out: Minimum Inhibitory Concentration, MIC
[19] = test system: Streptococcus pneumoniae M2; test: microbe, parasite or virus in culture; details: 37° C., 24 h, read-out: Minimum Inhibitory Concentration, MIC
[20] = test system: Enterococcus faecalis 1513 (VRE); test: microbe, parasite or virus in culture; details: 24 h, read-out: Minimum Inhibitory Concentration, MIC
[21] = read-out: Minimum Inhibitory Concentration, MIC, Microorganism 29, Clostridium tetani, 37° C.
[22] = read-out: Minimum Inhibitory Concentration, MIC, Microorganism 30, Clostridium tetani (second line of that name), 37° C.

Compound	MIC [1] [µM]	MIC (MIC broth microdilution) [µM]	MIC (Clostridium perfringens) [µM]	MIC [2] [µM]	MIC [3] [µM]	MIC [4] [µM]	MIC (green Streptococcus 1009) [µM]	MIC [5] [µM]	MIC (Bacillus cereus 2) [µM]	MIC [6] [µM]	MIC [7] [µM]	MIC [8] [µM]	MIC (Bacillus subtilis 82) [µM]	MIC [9] [µM]	MIC [10] [µM]	MIC (Bacillus anthracis 1) [µM]	MIC [11] [µM]	MIC [12] [µM]	MIC (Streptococcus 10342) [µM]	MIC (Oral candidiasis) [µM]	other results
CCc1nn2c(=O)cc(-c3ccc(C#N)cc3)[nH]c2c1-c1ccc(Cl)cc1Cl [Compound 5]	0.16 (≈ 0.0655 µg/mL)	33.5 (≈ 13.7 µg/mL)	55.3 (≈ 22.6 µg/mL)	31.3 (≈ 12.8 µg/mL)	10.5 (≈ 4.3 µg/mL)	2.01 (≈ 0.823 µg/mL)	0.31 (≈ 0.127 µg/mL)	32.1 (≈ 13.1 µg/mL)	10.5 (≈ 4.3 µg/mL)	26.1 (≈ 10.7 µg/mL)	0.16 (≈ 0.0655 µg/mL)	135 (≈ 55.4 µg/mL)	0.04 (≈ 0.0164 µg/mL)	150 (≈ 61.5 µg/mL)	0.3 (≈ 0.123 µg/mL)	52.4 (≈ 21.4 µg/mL)	19.2 (≈ 7.86 µg/mL)	0.3 (≈ 0.123 µg/mL)	1.33 (≈ 0.544 µg/mL)	52.1 (≈ 21.3 µg/mL)	inhibition of growth (conclusion from MICs) (Gram-positive Bacteria; the majority of Bacillus cereus, Bacillus subtilis and Enterococcus faecalis): significantly inhibited the growth; MIC [13]: 105 µM (≈ 43.1 µg/mL); MIC (Clostridium tetani; [21]): 50.3 µM (≈ 20.6 µg/mL); MIC (Clostridium tetani; [22]): 23.2 µM (≈ 9.5 µg/mL); MIC [14]: 5.31 µM (≈ 2.17 µg/mL); MIC (Pyogenic Streptococcus): 20.1 µM (≈ 8.23 µg/mL); MIC [15]: 213 µM (≈ 87.3 µg/mL); MIC [16]: 1.25 µM (≈ 0.512 µg/mL); MIC [17]: 123 µM (≈ 50.4 µg/mL); MIC (Bacillus subtilis 168): 0.12 µM (≈ 0.0491 µg/mL); MIC [18]: 2.01 µM (≈ 0.823 µg/mL); MIC (Bacillus cereus 246): 0.3 µM (≈ 0.123 µg/mL); MIC [19]: 0.04 µM (≈ 0.0164 µg/mL); MIC [20]: 35.2 µM (≈ 14.4 µg/mL)
Cc1nn2c(=O)cc(-c3ccc(C#N)cc3)[nH]c2c1-c1ccc(Cl)cc1Cl [Compound 10]	5 (≈ 1.98 µg/mL)	55.9 (≈ 22.1 µg/mL)	25.1 (≈ 9.92 µg/mL)	0.31 (≈ 0.123 µg/mL)	0.25 (≈ 0.0988 µg/mL)	0.02 (≈ 0.0079 µg/mL)	1.45 (≈ 0.573 µg/mL)	0.99 (≈ 0.391 µg/mL)	0.31 (≈ 0.123 µg/mL)	70.3 (≈ 27.8 µg/mL)	1.25 (≈ 0.494 µg/mL)	0.34 (≈ 0.134 µg/mL)	0.63 (≈ 0.249 µg/mL)	0.23 (≈ 0.0909 µg/mL)	0.16 (≈ 0.0632 µg/mL)	35.6 (≈ 14.1 µg/mL)	0.56 (≈ 0.221 µg/mL)	2.3 (≈ 0.909 µg/mL)	1.15 (≈ 0.455 µg/mL)	99.2 (≈ 39.2 µg/mL)	inhibition of growth (conclusion from MICs) (Gram-positive Bacteria; Enterococcus faecalis (VRE), Staphylococcus aureus (MRSA), Streptococcus pneumoniae 6303 (PRSP), Bacillus cereus, Bacillus subtilis, Enterococcus faecalis, Staphylococcus aureus, Streptococcus pneumoniae, Streptococcus agalactiae B and streptococci 4): significantly inhibited the growth; MIC [13]: 0.04 µM (≈ 0.0158 µg/mL); MIC (Clostridium tetani; [21]): 60.3 µM (≈ 23.8 µg/mL); MIC (Clostridium tetani; [22]): 20.3 µM (≈ 8.02 µg/mL); MIC [14]: 0.63 µM (≈ 0.249 µg/mL); MIC (Pyogenic Streptococcus): 2.5 µM (≈ 0.988 µg/mL); MIC [15]: 1.23 µM (≈ 0.486 µg/mL); MIC [16]: 1.35 µM (≈ 0.534 µg/mL); MIC [17]: 0.31 µM (≈ 0.123 µg/mL); MIC (Bacillus subtilis 168): 0.63 µM (≈ 0.249 µg/mL); MIC [18]: 1.05 µM (≈ 0.415 µg/mL); MIC (Bacillus cereus 246): 1.32 µM (≈ 0.522 µg/mL); MIC [19]: 0.31 µM (≈ 0.123 µg/mL); MIC [20]: 0.61 µM (≈ 0.241 µg/mL)
